Laboratory results reported in PubChem BioAssay (NCI).
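Compound exposure: 48 hours, 5 concentrations, 96-well plates. TGI marks complete inhibition of growth.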

What was measured:
Test in all cases: NCI-60 cell line screen, 48 h
[1] = test system: SF-295 CNS
[2] = test system: SK-MEL-2 melanoma
[3] = test system: OVCAR-5 ovarian
[4] = test system: UACC-62 melanoma
[5] = test system: IGROV1 ovarian
[6] = test system: BT-549 breast
[7] = test system: EKVX NSCLC
[8] = test system: CCRF-CEM leukemia
[9] = test system: HOP-92 NSCLC
[10] = test system: MOLT-4 leukemia
[11] = test system: NCI-H460 lung
[12] = test system: SN12C renal
[13] = test system: SR leukemia
[14] = test system: K-562 leukemia
[15] = test system: MALME-3M melanoma
[16] = test system: A498 renal
[17] = test system: MDA-MB-435
[18] = test system: M14 melanoma
[19] = test system: UO-31 renal
[20] = test system: SK-OV-3 ovarian
[21] = test system: HCT-116 colon
[22] = test system: SW-620 colon
[23] = test system: NCI-H226 lung
[24] = test system: OVCAR-8 ovarian
[25] = test system: SK-MEL-28 melanoma
[26] = test system: HT29 colon
[27] = test system: OVCAR-3 ovarian
[28] = test system: TK-10 renal
[29] = test system: A549 NSCLC
[30] = test system: OVCAR-4 ovarian
[31] = test system: KM12 colon
[32] = test system: ACHN renal
[33] = test system: HCC-2998 colon
[34] = test system: MCF7 breast
[35] = test system: SF-539 CNS
[36] = test system: UACC-257 melanoma
[37] = test system: HOP-62 NSCLC
[38] = test system: MDA-MB-231 breast
[39] = test system: COLO 205 colon
[40] = test system: RXF 393 renal
[41] = test system: SNB-75 CNS
[42] = test system: CAKI-1 renal
[43] = test system: HL-60(TB) leukemia
[44] = test system: SNB-19 CNS
[45] = test system: NCI-H23 lung
[46] = test system: NCI/ADR-RES ovarian
[47] = test system: MDA-N
[48] = test system: HCT-15 colon
[49] = test system: PC-3 prostate
[50] = test system: U251 CNS
[51] = test system: 786-0 renal
[52] = test system: HS 578T breast
[53] = test system: LOX IMVI melanoma
[54] = test system: SK-MEL-5 melanoma

Q: What does the source list for `CN(C)c1ccc(/C=N/N=C2\C(=O)Nc3c(Cl)cc(Cl)cc32)cc1`?
A: TGI [1]: > 100 µM; TGI [2]: > 100 µM; TGI [3]: > 100 µM; TGI [4]: > 100 µM; TGI [5]: > 100 µM; TGI [6]: > 100 µM; TGI [7]: > 100 µM; TGI [8]: > 100 µM; TGI [9]: > 100 µM; TGI [10]: > 100 µM; TGI [11]: > 100 µM; TGI [12]: > 100 µM; TGI [13]: 33 µM; TGI [14]: > 100 µM; TGI [15]: > 100 µM; TGI [16]: > 100 µM; TGI [17]: > 100 µM; TGI [18]: > 100 µM; TGI [19]: > 100 µM; TGI [20]: > 100 µM; TGI [21]: > 100 µM; TGI [22]: > 100 µM; TGI [23]: > 100 µM; TGI [24]: > 100 µM; TGI [25]: > 100 µM; TGI [26]: > 100 µM; TGI [27]: > 100 µM; TGI [28]: > 100 µM; TGI [29]: > 100 µM; TGI [30]: > 100 µM; TGI [31]: 36.4 µM; TGI [32]: > 100 µM; TGI [33]: > 100 µM; TGI [34]: > 100 µM; TGI [35]: > 100 µM; TGI [36]: > 100 µM; TGI [37]: > 100 µM; TGI [38]: > 100 µM; TGI [39]: > 100 µM; TGI [40]: > 100 µM; TGI [41]: 56.9 µM; TGI [42]: > 100 µM; TGI [43]: > 100 µM; TGI [44]: > 100 µM; TGI [45]: > 100 µM; TGI [46]: 89 µM; TGI [47]: 33.8 µM; TGI [48]: > 100 µM; TGI [49]: > 100 µM; TGI [50]: > 100 µM; TGI [51]: > 100 µM; TGI [52]: > 100 µM; TGI [53]: > 100 µM; TGI [54]: > 100 µM
